According to patent US12018258B2, “Mobile-CRISPRi plasmids and related methods” (CZ Biohub SF, LLC, priority 2019, dated 2024):

Tests used:
Klebsiella pneumoniae = conditions: MIC assay, n=3
Description: (§1) MIC assays were performed using the broth microdilution method as previously described in Wiegand et al. Agar and broth dilution methods to determine the minimal inhibitory concentration (MIC) of antimicrobial substances. Nat. Protoc. 3, 163 (2008) (28), except that 0.1% arabinose (for P. aeruginosa) or 100 μM IPTG (for E. aerogenes) was added to induce dcas9 expression, and K. pneumoniae cultures were shaken to reduce clumping. Three biological replicates were grown for MIC assays. Growth curves shown in FIG. 3 were set up in exactly the same manner as the MIC assays, except that cultures were grown with agitation in a plate reader (BioTek) for ˜16 hrs. P-values for comparing MICs between control sgRNA and folA sgRNA strains were obtained using an unpaired two-tailed t-test with Welch's correction to account for unequal variances between samples and calculated using GraphPad Prism 7.0e.

Enterobacter aerogenes = conditions: MIC assay, n=3
Description: as §1

[1] = test system: pathogenic Gammaproteobacteria associated with antibiotic resistance
Description: MIC assays were performed using the broth microdilution method as previously described in Wiegand et al. Agar and broth dilution methods to determine the minimal inhibitory concentration (MIC) of antimicrobial substances. […] 3, 163 (2008) (28), except that 0.1% arabinose (for P. aeruginosa) or 100 μM IPTG (for E. aerogenes) was added to induce dcas9 expression, and K. pneumoniae cultures were shaken to reduce clumping. Three biological replicates were grown for MIC assays. […] P-values for comparing MICs between control sgRNA and folA sgRNA strains were obtained using an unpaired two-tailed t-test with Welch's correction to account for unequal variances between samples and calculated using GraphPad Prism 7.0e.

`COc1cc(Cc2cnc(N)nc2N)cc(OC)c1OC` [trimethoprim] was tested, and the “sensitivity to trimethoprim after CRISPRi knockdown of folA” value (Klebsiella pneumoniae) was “increased sensitivity”, the “sensitivity to trimethoprim after CRISPRi knockdown of folA” value (Enterobacter aerogenes) was “increased sensitivity” and the “growth of the folA knockdown strains” value ([1]; trimethoprim concentrations below the MIC for the wild type bacteria, data not shown) was “completely inhibited growth”. The “shift of the minimal inhibitory concentration (MIC)” value ([1]; {}) was 2-4 fold.
